Data published in ChEMBL document CHEMBL1201862, “PubChem BioAssay data set” (2004).
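96-well plates; 48 h exposure; 5 concentrations. Endpoints by linear interpolation between flanking doses. Not reached: highest tested concentration assigned. Here, GI50 denotes the concentration required for 50% inhibition of growth.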 Active and inactive are the calls of the source. Cut-off read from the data, not from the text of the source: active = GI50 up to about 1.1 µM and inactive = higher.

Key:
Assay in all cases: NCI tumour cell line growth inhibition, 48 h
[1] = system: BT-549
[2] = system: DLD-1
[3] = system: DMS-273
[4] = system: LXFL 529
[5] = system: M19-MEL
[6] = system: SNB-78
[7] = system: XF498
[8] = system: DMS-114
[9] = system: RXF 631

## COc1cc(C2CC(C)(O)Oc3cc4c(cc32)OCO4)cc(OC)c1OC (stereo not drawn)
[1]
  GI50: 0.583 µM (active)

## COc1cc(S(=O)(=O)Nc2ccc(-c3csc(N4C(=O)CSC4c4cccs4)n3)cc2)ccc1Cl (stereo not drawn)
[1]
  GI50: 23.6 µM (inactive)

## CCn1c(=O)c2c3ccc(OC)cc3[nH]c2c2ccc(OC)cc21
[1]
  GI50: 79.4 µM (inactive)

## O=C(CC1C=CCS1(=O)=O)NCc1ccccc1 (stereo not drawn)
[1]
  GI50: > 100 µM (inactive)

## O=C(O)/C=N\N=c1[nH]c2ccccc2[nH]1
[1]
  GI50: > 100 µM (inactive)

## CC(=O)Nc1ccc(C2=N/C(=C\c3ccc(Cl)cc3)C(=O)O2)cc1
[2]
  GI50: 31.9 µM (inactive)
[3]
  GI50: 66.5 µM (inactive)
[4]
  GI50: 24.4 µM (inactive)
[5]
  GI50: 25.5 µM (inactive)
[6]
  GI50: > 100 µM (inactive)
[7]
  GI50: 22 µM (inactive)

## CC1(C)CC[C@]2(C)[C@@H](O)C[C@]3(C)C(=CC[C@@H]4[C@@]5(C)CC[C@H](O)C(C)(C)[C@@H]5CC[C@]43C)[C@@H]2C1
[1]
  GI50: 93.1 µM (inactive)

## O=C1OC(Cl)C(N=P(c2ccccc2)(c2ccccc2)c2ccccc2)=C1Cl (stereo not drawn)
[2]
  GI50: > 100 µM (inactive)
[8]
  GI50: > 100 µM (inactive)
[3]
  GI50: > 100 µM (inactive)
[4]
  GI50: > 100 µM (inactive)
[5]
  GI50: > 100 µM (inactive)
[6]
  GI50: 37.9 µM (inactive)
[7]
  GI50: > 100 µM (inactive)

## NC(=S)NNCC(=O)CC(O)(C(F)(F)F)C(F)(F)Cl (stereo not drawn)
[1]
  GI50: > 100 µM (inactive)

## CCN(CC)CCN1C=CC(C)C(C(=O)O)C1C(N)=O (stereo not drawn)
[1]
  GI50: > 100 µM (inactive)

## O=C(O)C1=C(O)C(C(=O)O)C23CCCCCCCCCCC12C(C(=O)O)C(O)=C3C(=O)O (stereo not drawn)
[2]
  GI50: > 100 µM (inactive)
[8]
  GI50: > 100 µM (inactive)
[3]
  GI50: > 100 µM (inactive)
[4]
  GI50: > 100 µM (inactive)
[5]
  GI50: > 100 µM (inactive)
[7]
  GI50: > 100 µM (inactive)

## CC1(S)CC2C(CC1Sc1ccccc1)C2(C)C (stereo not drawn)
[2]
  GI50: > 100 µM (inactive)
[8]
  GI50: > 100 µM (inactive)
[3]
  GI50: > 100 µM (inactive)
[4]
  GI50: > 100 µM (inactive)
[5]
  GI50: > 100 µM (inactive)
[6]
  GI50: > 100 µM (inactive)
[7]
  GI50: > 100 µM (inactive)

## COc1ccc(N2C(=O)C3c4[nH]c5ccc(C)cc5c4C4CCC(C(C)(C)C)CC4C3C2=O)cc1 (stereo not drawn)
[1]
  GI50: 20.7 µM (inactive)

## C[N+](C)([O-])C12CC3CC(CC(C3)C1)C2
[1]
  GI50: 34 µM (inactive)

## NC(=S)N/N=C(\Cc1nc2ccc(Cl)cc2nc1O)C(=O)Nc1ccc(Cl)cc1
[1]
  GI50: > 100 µM (inactive)

## Cc1cc(Br)cc(C)c1NC(=O)C(=O)CC(=O)c1sc(-n2nc(-c3ccccc3)cc2-c2ccccc2)nc1C
[2]
  GI50: > 100 µM (inactive)
[8]
  GI50: > 100 µM (inactive)
[3]
  GI50: > 100 µM (inactive)
[4]
  GI50: > 100 µM (inactive)
[5]
  GI50: > 100 µM (inactive)
[9]
  GI50: > 100 µM (inactive)
[6]
  GI50: > 100 µM (inactive)

## CCc1nc(N)c2nc(-c3cccs3)oc2n1
[1]
  GI50: > 100 µM (inactive)

## CC(C)C(Br)CC/C(CBr)=C(\Cl)CCl (stereo not drawn)
[1]
  GI50: 1.78 µM (inactive)

## CCc1cccc(C)c1NC(=S)NC(=O)c1ccccc1C(=O)NC(=S)Nc1c(C)cccc1CC
[2]
  GI50: > 100 µM (inactive)
[8]
  GI50: 29.9 µM (inactive)
[3]
  GI50: 95.3 µM (inactive)
[4]
  GI50: 85.5 µM (inactive)
[5]
  GI50: 39.2 µM (inactive)
[6]
  GI50: > 100 µM (inactive)

## CC(C)c1cccc(C(C)C)c1NC(=O)C(=O)C(C(=O)c1ccc2ccccc2c1)C1OC(=O)c2ccccc21 (stereo not drawn)
[2]
  GI50: > 100 µM (inactive)
[8]
  GI50: > 100 µM (inactive)
[4]
  GI50: > 100 µM (inactive)
[5]
  GI50: 26.7 µM (inactive)
[6]
  GI50: > 100 µM (inactive)

## C[C@H](CCC1=NCCN1)[C@H]1CC[C@H]2[C@@H]3CC[C@@H]4C[C@H](O)CC[C@]4(C)[C@H]3C[C@H](O)[C@]12C
[1]
  GI50: 18.2 µM (inactive)

## CC(C)=CCC/C(C)=C/CC/C(C)=C/CC/C(C=O)=C/CC/C(C)=C\CC/C(C)=C/CC/C(C)=C/CC/C(C)=C/CC1=CC(=O)C=CC1=O
[1]
  GI50: > 100 µM (inactive)

## CC(SC(=S)N1CCCCC1)C(=O)Nc1nnc(-c2ccc(Cl)cc2)o1 (stereo not drawn)
[1]
  GI50: 51.2 µM (inactive)

## O=C(CN1CCN(Cc2ccccc2)CC1)c1ccc2[nH]c(=O)oc2c1
[1]
  GI50: > 100 µM (inactive)

## Cc1ccc(/C=C/C(=O)C(C)C)cc1
[2]
  GI50: 51.9 µM (inactive)
[8]
  GI50: 42.2 µM (inactive)
[4]
  GI50: 33.8 µM (inactive)
[5]
  GI50: 64 µM (inactive)
[6]
  GI50: 64.7 µM (inactive)

## COC(=O)c1cccc2c3ccccc3c3ccccc3c12
[2]
  GI50: 65.9 µM (inactive)
[8]
  GI50: 29.4 µM (inactive)
[3]
  GI50: 33.3 µM (inactive)
[4]
  GI50: 28 µM (inactive)
[5]
  GI50: 51.2 µM (inactive)

## O=[N+]([O-])c1ccc(S[C@@H]2[C@H]3c4c(-c5ccccc5)[nH]c(-c5ccccc5)c4[C@@H]2C[C@H]3Cl)cc1
[1]
  GI50: 3.66 µM (inactive)

## Cc1ccc(S(=O)(=O)/N=C(\NN)Nc2ccc(Cl)cc2)cc1
[1]
  GI50: > 100 µM (inactive)

## NCC(O)CNC(=O)c1ccc(-c2ccc(-c3ccc(C(=O)NCC(O)CN)cc3)o2)cc1 (stereo not drawn)
[1]
  GI50: 32.7 µM (inactive)

## CC(CCN)(CCN)[N+](=O)[O-]
[1]
  GI50: > 100 µM (inactive)

## CC(=O)Nc1[nH]c(C#N)nc1C#N
[1]
  GI50: > 100 µM (inactive)

## N#CC1=C(N)N(/N=C/c2ccco2)C(c2ccco2)C1(C#N)C#N (stereo not drawn)
[1]
  GI50: 17.6 µM (inactive)

## O=C(c1ccco1)N(C(=S)OC12CC3CC(CC(C3)C1)C2)c1ccccc1
[1]
  GI50: 34.5 µM (inactive)

## CC1(C)CC(=O)C(CC2C(=O)c3ccccc3C2=O)C(=O)C1C(=O)C(=O)Nc1cccc2ccc(O)cc12 (stereo not drawn)
[1]
  GI50: 15 µM (inactive)

## CCOC(=O)Cc1c(Cc2[nH]c(C(=O)OCc3ccccc3)c(CC(=O)OCC)c2CC(=O)OCC)[nH]c(C(=O)OCc2ccccc2)c1CC(=O)OCC
[8]
  GI50: > 100 µM (inactive)
[4]
  GI50: > 100 µM (inactive)
[5]
  GI50: > 100 µM (inactive)
[6]
  GI50: > 100 µM (inactive)
